ChEMBL document CHEMBL1201862, “PubChem BioAssay data set” (2004)
Calls of active or inactive are those of the source.

Columns and labels:
[1] = cAMP pathway inhibition in counterscreen cell line – TR-FRET cAMP detection, counter-screen for MC4R biased antagonist project, dose response (AID 602305); type: functional, cell-based;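 further: U2OS cells stimulated with forskolin near its EC80 as the cAMP inducer; potency is for inhibition of forskolin-stimulated cAMP signaling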
[2] = non-specific 3'UTR reporter inhibition in Clone20-Shn3RL – cell-based, Renilla luciferase, cherry-picked, counter-screen for Shn3 inhibitor project, dose response (AID 624133); type: functional
Melanocortin receptor 4 = Melanocortin receptor 4 (Homo sapiens, UniProt P32245); assay: inhibitors of MC4R cAMP signaling – cell-based, TR-FRET, biased antagonists, dose response (AID 602298); type: functional;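 further: antagonist potency against agonist-stimulated cAMP production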
[3] = general cell-killing toxicity readout – plate reader, dry powder samples, cytotoxicity control for PAX8 inhibitor project, dose response (AID 743021); type: functional, cell-based
[4] = reduction of Shn3 3'UTR-driven luciferase in osteoblasts – cell-based, Clone20 osteoblasts, firefly luciferase, cherry-picked, dose response (AID 624132); type: functional;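 further: firefly luciferase luminescence from reporter carrying the Shn3 3'UTR in osteoblasts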
Beta Lactamase = Beta Lactamase (Pseudomonas aeruginosa, UniProt Q932Y6); assay: BLA reporter interference, concentration series – BLA reporter cells, FRET fluorescence, artefact control for NOD2-RIPK2 interaction inhibitor project, dose response (AID 651552); type: functional, cell-based
[5] = loss of viability in HepG2 cells – cell-based, CellTiter-Glo, cherry-picked, cytotoxicity control for Shn3 inhibitor project, dose response (AID 624134); type: functional
[6] = Fluorescence-based cell-based high throughput dose response assay for inhibitors of the interaction of nucleotide-binding oligomerization domain containing 2 (NOD2) and the receptor-interacting serine-threonine kinase 2 (RIPK2).; type: functional; details: Homo sapiens
Paired box protein Pax-8 = Paired box protein Pax-8 (Homo sapiens, UniProt Q06710); assay: PAX8 transcriptional activity inhibition in RMG-I – RMG-I cells, luciferase, cherry-pick, dose response (AID 687027); type: functional, cell-based;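 further: luciferase reporter driven by Pax8 target thyroperoxidase promoter measured by SteadyGlo luminescence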
[7] = molecular target: T1, Corticotropin-releasing factor receptor 2/Corticotropin-releasing factor-binding protein (Homo sapiens, UniProt P24387+Q13324); assay: activators of CRF receptor 2 with binding protein – uHTS hits, confirmation (AID 602473); type: functional; details: read-out: EC50_Mean
T1 sequence (Q13324 whole entry): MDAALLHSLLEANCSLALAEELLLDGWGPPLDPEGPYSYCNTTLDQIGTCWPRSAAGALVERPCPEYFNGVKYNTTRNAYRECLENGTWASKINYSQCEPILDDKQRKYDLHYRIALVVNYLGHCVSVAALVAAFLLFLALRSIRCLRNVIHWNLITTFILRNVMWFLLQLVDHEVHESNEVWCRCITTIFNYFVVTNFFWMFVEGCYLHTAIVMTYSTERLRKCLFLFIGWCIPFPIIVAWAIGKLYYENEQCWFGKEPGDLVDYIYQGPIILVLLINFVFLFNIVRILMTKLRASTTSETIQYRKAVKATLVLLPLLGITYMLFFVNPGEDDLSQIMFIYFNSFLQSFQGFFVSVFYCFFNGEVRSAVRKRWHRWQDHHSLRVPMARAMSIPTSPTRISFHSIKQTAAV
T1 sequence (P24387 whole entry): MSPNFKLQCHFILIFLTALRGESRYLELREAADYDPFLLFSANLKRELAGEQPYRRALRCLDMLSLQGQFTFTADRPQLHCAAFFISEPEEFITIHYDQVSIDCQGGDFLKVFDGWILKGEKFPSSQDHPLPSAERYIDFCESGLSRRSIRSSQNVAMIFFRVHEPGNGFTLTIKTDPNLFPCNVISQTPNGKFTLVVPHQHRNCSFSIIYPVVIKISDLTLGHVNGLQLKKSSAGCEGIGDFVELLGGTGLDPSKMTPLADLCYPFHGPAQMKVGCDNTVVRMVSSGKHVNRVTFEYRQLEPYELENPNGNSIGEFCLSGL

[8] = molecular target: T1, Corticotropin-releasing factor receptor 2/Corticotropin-releasing factor-binding protein; assay: Dose Response confirmation of uHTS hits for small molecule antagonists of the CRF-binding protein and CRF-R2 receptor complex.; type: functional; details: read-out: IC50_Mean
[9] = A549 cell cytotoxicity, dose response, cytotoxicity control, plate reader, cherry-pick, antagonist series (AID 743412); type: functional, cell-based
P388 = assay: cells; type: functional; details: Mus musculus
SN12K1 = assay: cells; type: functional; details: Homo sapiens
P388/ADR = assay: cells; type: functional; details: Mus musculus
cells [10] = type: functional, cell-based
Streptococcus = assay: GAS UMAA2166 growth inhibition – luminescence, BacTiterGlo, counter-screen for streptokinase expression inhibitor project, dose response (AID 1915); type: functional, organism-based;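 further: potency for reduction of bacterial viability or growth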
Albumin = Albumin (Bos taurus, UniProt P02769); assay: Counterscreen for inhibitors of T-cell receptor (TCR)-CD3 interaction: Fluorescence-based biochemical high throughput dose response assay to identify inhibitors of T-cell receptor (TCR)-CD3 interaction using a TAMRA-labeled BSA probe.; type: functional
[11] = HGIII-sPLA2 enzyme inhibition potency – biochemical, QFRET, IC50, dose response (AID 743457);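 further: green fluorescence rise as the enzyme cleaves BODIPY PC-A2 in liposomes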
INS1 = assay: INS-1E survival protection against cytokine death – cell-based, luminescence, retest, dose response (AID 449756); type: functional; details: Rattus norvegicus;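 further: cell death triggered by IL-1 beta plus TNF-alpha plus IFN-gamma mixture; protective hits raise ATP signal compared with cytokine alone wells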
[12] = test system: Streptococcus sp. 'group A'; assay: Streptococcus pyogenes SK(-)GAS viability under kanamycin – luminescence, BacTiterGlo, confirmation, counter-screen for streptokinase expression inhibitor project, dose response (AID 1900); type: functional, organism-based
cells [13] = type: functional, cell-based; remark: listed apart in the source

Chain of Paired box protein Pax-8 (Q06710 whole entry): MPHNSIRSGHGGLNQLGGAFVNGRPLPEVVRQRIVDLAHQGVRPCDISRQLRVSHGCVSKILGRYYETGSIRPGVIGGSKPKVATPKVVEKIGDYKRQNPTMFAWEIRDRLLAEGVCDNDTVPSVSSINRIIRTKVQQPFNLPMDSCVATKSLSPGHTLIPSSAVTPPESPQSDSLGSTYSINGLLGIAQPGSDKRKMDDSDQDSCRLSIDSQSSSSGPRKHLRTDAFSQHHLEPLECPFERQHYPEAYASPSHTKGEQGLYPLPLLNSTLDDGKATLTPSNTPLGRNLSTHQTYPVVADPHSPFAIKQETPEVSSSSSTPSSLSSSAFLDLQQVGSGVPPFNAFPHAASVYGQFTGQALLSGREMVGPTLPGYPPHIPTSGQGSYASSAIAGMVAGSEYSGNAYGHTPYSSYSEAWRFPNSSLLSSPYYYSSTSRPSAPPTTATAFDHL
Chain of Albumin (P02769 whole entry): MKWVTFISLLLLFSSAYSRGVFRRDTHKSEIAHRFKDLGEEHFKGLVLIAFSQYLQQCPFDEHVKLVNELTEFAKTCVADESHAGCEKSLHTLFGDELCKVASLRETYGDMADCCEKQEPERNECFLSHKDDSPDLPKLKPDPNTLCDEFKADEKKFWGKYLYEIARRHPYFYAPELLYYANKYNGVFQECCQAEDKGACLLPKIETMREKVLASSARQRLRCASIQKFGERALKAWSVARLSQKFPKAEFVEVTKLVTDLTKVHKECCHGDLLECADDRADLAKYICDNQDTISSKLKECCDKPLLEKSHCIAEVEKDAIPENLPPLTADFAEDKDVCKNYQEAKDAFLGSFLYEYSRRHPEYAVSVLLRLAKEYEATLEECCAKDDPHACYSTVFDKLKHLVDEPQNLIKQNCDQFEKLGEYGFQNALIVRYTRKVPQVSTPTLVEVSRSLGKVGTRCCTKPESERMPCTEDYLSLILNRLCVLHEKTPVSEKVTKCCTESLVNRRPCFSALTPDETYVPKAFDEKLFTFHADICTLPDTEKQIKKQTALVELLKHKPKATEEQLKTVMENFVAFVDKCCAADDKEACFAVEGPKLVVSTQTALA
Chain of Melanocortin receptor 4 (P32245 whole entry): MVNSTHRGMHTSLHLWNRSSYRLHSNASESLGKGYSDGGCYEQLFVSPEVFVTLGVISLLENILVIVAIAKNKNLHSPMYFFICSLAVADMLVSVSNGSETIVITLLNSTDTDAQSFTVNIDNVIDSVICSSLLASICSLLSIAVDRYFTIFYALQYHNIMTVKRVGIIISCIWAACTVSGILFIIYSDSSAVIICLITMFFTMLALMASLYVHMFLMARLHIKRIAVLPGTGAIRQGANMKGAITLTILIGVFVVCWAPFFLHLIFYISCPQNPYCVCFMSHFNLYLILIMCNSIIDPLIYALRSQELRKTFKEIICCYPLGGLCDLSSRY
Chain of Beta Lactamase (Q932Y6 whole entry): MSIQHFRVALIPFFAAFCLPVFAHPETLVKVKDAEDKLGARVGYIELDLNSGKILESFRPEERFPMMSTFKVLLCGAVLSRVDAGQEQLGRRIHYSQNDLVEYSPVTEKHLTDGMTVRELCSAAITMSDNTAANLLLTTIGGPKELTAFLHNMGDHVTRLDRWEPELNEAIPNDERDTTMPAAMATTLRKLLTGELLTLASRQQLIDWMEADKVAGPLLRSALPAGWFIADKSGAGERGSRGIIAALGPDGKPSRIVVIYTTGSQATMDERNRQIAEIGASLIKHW

CC(OC(=O)c1ccc(S(C)(=O)=O)c([N+](=O)[O-])c1)C(=O)NC1C2CC3CC(C2)CC1C3 (stereo not drawn)
IC50 [1]: > 64.6 µM (inactive) | AC50 [2]: 7.51 µM (active) | IC50 (Melanocortin receptor 4): > 64.6 µM (inactive) | AC50 [3]: 22.6 µM (active) | AC50 [4]: 1.4 µM (active) | IC50 (Beta Lactamase): 49.8 µM (inactive) | AC50 [5]: 8.28 µM (active) | IC50 [6]: 0.8 µM (active) | AC50 (Paired box protein Pax-8): 5.88 µM (active)

CCCC(=O)Nc1nnc(Sc2ccc(N(C)C)cc2)s1
EC50 [7]: > 53 µM (inactive) | IC50 [8]: > 47.1 µM (inactive)

CC(=O)N1CCc2cc(S(=O)(=O)C(C)CC(=O)NCc3ccco3)ccc21 (stereo not drawn)
AC50 [9]: > 52 µM (inactive)

Cc1ccc(-c2ccc(=O)n(Cc3cc(C)ccc3C)n2)cc1
EC50 [7]: > 53 µM (inactive) | IC50 [8]: > 47.1 µM (inactive)

Cc1nc(-c2ccc(NC(=O)c3ccco3)cc2)cs1
AC50 [3]: 17.1 µM (active) | AC50 (Paired box protein Pax-8): 8.26 µM (active)

O=C(Cn1ncc2c3ccccc3nc-2c1O)NCC1CCN(Cc2ccccc2F)CC1
EC50 [7]: > 53 µM (inactive) | IC50 [8]: > 47.1 µM (inactive)

C(=C/c1nc2ccccc2o1)/c1ccc2c(c1)OCO2
GI50 (P388): 3.52 µM (inactive) | GI50 (SN12K1): 5.62 µM (inactive) | GI50 (P388/ADR): 3.99 µM (inactive)

Cc1cc(Br)cc(/C=N/NC(=O)c2ccc3c(c2)OCO3)c1O
EC50 (cells [10]): 75.7 µM (active) | EC50 (Streptococcus): 3.25 µM (active) | IC50 (Albumin): > 94.1 µM (inactive) | IC50 [11]: > 122 µM (inactive) | AC50 (INS1): 1.32 µM (active) | EC50 [12]: 1.22 µM (active) | EC50 (cells [13]): 96.8 µM (active)
